Laboratory results published in patent US12624019B2, “Indazole derivative, and preparation method therefor and use thereof” (Leadingtac Pharmaceutical (Shaoxing) Co., Ltd., priority 2020, dated 2026).

Legend:
IRAK4 kinase = molecular target: T1, IRAK4 kinase (Homo sapiens, UniProt Q9NWZ3); experiment: IRAK4 kinase activity test (KinEASE-STK HTRF kit); format: biochemical; conditions: IRAK4 kinase inhibition, 7 μM ATP, 37° C. 120 min
T1 sequence (Q9NWZ3 1-460): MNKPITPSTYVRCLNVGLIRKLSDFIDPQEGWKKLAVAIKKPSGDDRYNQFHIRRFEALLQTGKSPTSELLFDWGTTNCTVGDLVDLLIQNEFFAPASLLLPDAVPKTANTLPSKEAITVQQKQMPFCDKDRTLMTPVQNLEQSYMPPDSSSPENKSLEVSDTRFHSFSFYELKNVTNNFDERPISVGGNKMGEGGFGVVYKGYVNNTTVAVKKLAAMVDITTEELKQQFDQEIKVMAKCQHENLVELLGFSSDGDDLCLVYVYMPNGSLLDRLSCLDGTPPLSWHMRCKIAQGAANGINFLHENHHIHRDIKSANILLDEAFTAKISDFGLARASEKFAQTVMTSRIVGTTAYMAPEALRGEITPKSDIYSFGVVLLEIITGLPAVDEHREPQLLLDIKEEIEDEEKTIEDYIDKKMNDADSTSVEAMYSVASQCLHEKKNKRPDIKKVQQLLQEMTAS
Method: KinEASE-STK Si serine/threonine kinase kit (Cisbio) was used to detect the inhibitory effect of the compound on IRAK4 kinase activity. The specific method was: the compound was dissolved in dimethyl sulfoxide, and then it was diluted with the buffer solution of the kit by equal gradient to make the final concentration range of the tested compound in the reaction system 10000 nM-0.038 nM, then 2.5 nM kinase, 1 μM biotinylated polypeptide substrate and 7 μM adenosine triphosphate (ATP) were added in sequence and incubated at 37° C. for 120 min. Subsequently, anti-phosphorylated serine/threonine antibody coupled with europium element compound and modified XL665 streptavidin were added to the reaction system to terminate the reaction. After incubating at room temperature for 1 h, the fluorescence intensity of each well at the emission wavelength of 620 nm and 665 nm and the excitation wavelength of 337 nm was determined in HTRF mode on the microplate reader EnVision (PerkinElmer), the ratio value was calculated using the formula Ratio=(665 nm/620 nm)×10^4. By comparing with the fluorescence intensity ratio of the control group, the inhibition rate of the compound at each concentration was calculated, and then the IC50 value of the compound was obtained by fitting the nonlinear curve with the logarithmic concentration-inhibition rate by GraphPad Prism 7.

[1] = molecular target: T2, IRAK4 kinase protein in THP-1 cells (Homo sapiens, UniProt Q9NWZ3); experiment: Degradation of IRAK4 in THP-1 cells by Western Blot; format: cell-based; conditions: 24 hours; for DC50 / Dmax: IRAK4 degradation in THP-1 cells; for DC50: read-out: WB DC50; for Dmax: read-out: WB Dmax; for WB D(%) (300 nM) / WB D(%) (1000 nM): degradation percentage of IRAK4 in THP-1 cells; for WB D(%) (300 nM): compound 300 nM; for WB D(%) (1000 nM): compound 1000 nM
T2 construct: endogenous in cells; host or cells: THP-1 cells
T2 sequence (Q9NWZ3 1-460): T1 sequence (Q9NWZ3 1-460)
Method: Each well of the 24-well cell culture plate was inoculated with 0.95 mL THP-1 cells (stem cell bank of Chinese academy of sciences) with a cell density of 5×10^5 cells/well. The cell plate was placed in a 5% carbon dioxide incubator and cultured overnight at 37° C., then 50 μL compound in dimethyl sulfoxide was added. The final concentration of the compound was in the range of 1-3000 nM. After continuous cultivation for 24 hours, the cells were collected into a 1.5 mL centrifuge tube, centrifuged at 1000 rpm and 4° C. for 5 minutes. Cell precipitation was washed twice with 1×DPBS, resuspended cells were lysed with 200 μL lysate (cell lysate was Western and IP cell lysate (Beyotime), supplemented with 1 mM mixture of phenylmethylsulfonyl fluoride and protease inhibitor (Beyotime)), left on ice for 30 minutes, then centrifuged at 14000 g at 4° C. for 10 minutes, and the supernatant was taken to detect IRAK4 protein level by Western blot.
The total protein concentration in the supernatant of cell lysis was determined by BCA protein quantitative kit (Tiangen). According to the concentration of total protein detected by BCA, the supernatant was adjusted to […] with PBS and 5×SDS-PAGE protein loading buffer (Beyotime), bathed in water at 100° C. for 10 minutes, then placed in ice bath for 5 minutes, centrifuged at 14000 g and 4° C. for 5 minutes, and then collected as WB loading sample. Prefabricated glue (KeyGEN) was used for protein electrophoresis with a loading amount of 10 μL (total protein 2 μg). After Tris-MOPS-SDS electrophoresis solution (Adamas), 120V constant pressure electrophoresis was performed. After electrophoresis, the protein on the adhesive strip was transferred to PVDF membrane with a constant current of […] for 50 minutes. After the membrane was transferred, the membrane was added in 1×QuickBlock blocking buffer (Beyotime) and incubated for 30 minutes at room temperature. After blocking, PVDF membranes were incubated with IRAK4 primary antibody (Abcam) overnight at 4°, the membranes were washed with TBST buffer (2.4 g Tris, 8.8 g NaCl, 1.5 mL Tween 20, pH adjusted to 7.4, constant volume to 1 L) for 30 minutes, incubated with secondary antibody (Abcam) for 2 hours at room temperature, finally incubated with Clarity Western ECL Substrate (BIO-RAD) for 5 minutes for luminescence development, chemiluminescence imaging system (Clinx, chemiScope 6200 Touch) was used for development and protein mapping photography. The protein map was analyzed by Clinx chemiluminescence analysis software for grayscale values. Using the formula: grayscale correction value=(target protein grayscale value/corresponding internal reference grayscale value)×[…], the grayscale correction value of each sample was calculated. The degradation rate was calculated by comparing with the grayscale correction value of the control group. Furthermore, DC50 and Dmax values of the compound were obtained by the nonlinear curve fitting with the logarithmic concentration-inhibition rate by GraphPad Prism 7.

[2] = Pharmacokinetic study in mice; format: in vivo, SD mice; conditions: for AUC(0-t) / bioavailability / Cmax: male, SD, mouse, plasma; for bioavailability: gavage 100 mg/kg vs intravenous 1 mg/kg
Method: The following experimental scheme was used to study the pharmacokinetic behavior of the compound of the present invention in mice and evaluate its pharmacokinetic characteristics.
Experimental scheme: 3 healthy SD mice, male, weighing […], were given 100 mg/kg compound by gavage with a volume of 10 mL/kg, prepared with […] (w/v). Before the test, they were fasted for 12 hours and freely drank water. Food was uniformly consumed 4 h after administration.
Three healthy SD mice, male, weighing […], were given 1 mg/kg compound intravenously with a volume of 5 mL/kg, prepared with 5% DMSO/15% solutol %80% PBS (w/v). Before the test, they were fasted for 12 hours and freely drank water. Food was uniformly consumed 4 h after administration.
0.1 mL of venous blood was taken through the submaxillary venous plexus of mice at 0.08 h, 0.25 h, 0.5 h, 1 h, 2 h, 4 h, 8 h, 24 h after gavage administration and 0.08 h, 0.25 h, 0.5 h, 1 h, 2 h, 4 h, 8 h, 24 h after intravenous administration, placed in a heparin test tube, centrifuged at 11000 rpm for 5 min, and plasma was separated, the concentration of compounds in plasma was determined by liquid chromatography-tandem mass spectrometry.

[3] = po, gavage administration 100 mg/kg

Structure (SMILES)	IC50 (IRAK4 kinase) [nM]	DC50 [1] [nM]	Dmax [1] [%]	WB D(%) (300 nM) [1]	WB D(%) (1000 nM) [1]	CL_pred ([2]; intravenous injection 1 mg/kg) [mL/min/kg]	Vss_pred ([2]; intravenous injection 1 mg/kg) [L/kg]	AUC(0-t) ([2]; intravenous injection 1 mg/kg) [ng·h/mL]	bioavailability ([2]; po) [%]	AUC(0-t) [2, 3] [ng·h/mL]	Cmax [2, 3] [ng/mL]
COc1cc2nn(C3CCN(CCN4CCN(c5ccc6c(c5)C(=O)N(C5CCC(=O)NC5=O)C6=O)CC4)CC3)cc2cc1NC(=O)c1cccc(C(F)(F)F)n1 (stereo not drawn) [Example 3, N-(2-(1-(2-(4-(2-(2,6-dioxopiperidin-3-yl)-1,3-dioxoisoindolin-5-yl)piperazin-1-yl)ethyl)piperidin-4-yl)-6-methoxy-2H-indazol-5-yl)-6-(trifluoromethyl) pyridinecarboxamide]	56.7	9.3	97.7	96.7	96.4						
COc1cc2nn(C3CCN(CCOCCOc4ccc5c(c4)C(=O)N(C4CCC(=O)NC4=O)C5=O)CC3)cc2cc1NC(=O)c1cccc(C(F)(F)F)n1 (stereo not drawn) [Control group 1, N-(2-(1-(2-(2-((2-(2,6-dioxopiperidin-3-yl)-1,3-dioxoisoindolin-5-yl)oxy)ethoxy)ethyl)piperidin-4-yl)-6-methoxy-2H-indazol-5-yl)-6-(trifluoromethyl) pyridinecarboxamide, reference compound]			73.9	73.9	65.1						
COc1cc2nn(C3CCN(CCC4CCN(c5ccc6c(c5)C(=O)N(C5CCC(=O)NC5=O)C6=O)CC4)CC3)cc2cc1NC(=O)c1cccc(C(F)(F)F)n1 (stereo not drawn) [Example 1, N-(2-(1-(2-(1-(2-(2,6-dioxopiperidin-3-yl)-1,3-dioxoisoindolin-5-yl)piperidin-4-yl)ethyl)piperidin-4-yl)-6-methoxy-2H-indazol-5-yl)-6-(trifluoromethyl) pyridinecarboxamide]	48.6	25.1	98.8	99.4	99.8						
COc1cc2nn(C3CCN(CC4CCN(c5ccc6c(c5)C(=O)N(C5CCC(=O)NC5=O)C6=O)CC4)CC3)cc2cc1NC(=O)c1cccc(C(F)(F)F)n1 (stereo not drawn) [Example 2, N-(2-(1-((1-(2-(2,6-dioxopiperidin-3-yl)-1,3-dioxoisoindolin-5-yl)piperidin-4-yl)methyl)piperidin-4-yl)-6-methoxy-2H-indazol-5-yl)-6-(trifluoromethyl) pyridinecarboxamide]	92.7	15.7	90.5	90.5	86.5	8.3	3.3	1920	22.3	22400	1230
CC(C)(O)c1cc2nn(C3CCN(CCC4CCC5(CC4)CCN(c4ccc6c(c4)C(=O)N(C4CCC(=O)NC4=O)C6=O)CC5)CC3)cc2cc1NC(=O)c1cccc(C(F)(F)F)n1 (stereo not drawn) [Example 12, N-(2-(1-(2-(3-(2-(2,6-dioxopiperidin-3-yl)-1,3-dioxoisoindolin-5-yl)-3-azaspiro[5.5]undec-9-yl)ethyl)piperidin-4-yl)-6-(2-hydroxyprop-2-yl)-2H-indazol-5-yl)-6-(trifluoromethyl) pyridinecarboxamide]	60.9	18.3	99.8	97.4	97.9						
CC(C)(O)c1cc2nn(C3CCN(CC(C)(C)N4CCN(c5ccc6c(c5)C(=O)N(C5CCC(=O)NC5=O)C6=O)CC4)CC3)cc2cc1NC(=O)c1cccc(C(F)(F)F)n1 (stereo not drawn) [Example 9]	32.7	12.5	79.1	81.1	74.4						
CC(C)(O)c1cc2nn(C3CCN(CC4CCN(c5ccc6c(c5)C(=O)N(C5CCC(=O)NC5=O)C6=O)CC4)CC3)cc2cc1NC(=O)c1cccc(C(F)(F)F)n1 (stereo not drawn) [Example 7, N-(2-(1-((1-(2-(2,6-dioxopiperidin-3-yl)-1,3-dioxoisoindolin-5-yl)piperidin-4-yl)methyl)piperidin-4-yl)-6-(2-hydroxyprop-2-yl)-2H-indazol-5-yl)-6-(trifluoromethyl) pyridinecarboxamide]	48	10.6	80.2	82.9	79.6	5	2.2	3110	13.4	41600	3260
